Here are results for seven molecules from patent US20070244079A1, “PREVENTIVE/REMEDY FOR ALLERGIC DISEASES” (Ajinomoto Co., Inc., priority 2004, published 2007).

Assay [1] relates to ovalbumin-induced asthma model mice. Description: Ovalbumin-induced asthma model mice: eosinophil count in BAL Fluid. Type of assay: in vivo, Balb/c mice.
Assay [2] has the same test system. Description: Airway hypersensitivity test (methacholine, whole body plethysmography) in ovalbumin-induced asthma model mice. Type of assay: in vivo, Balb/c mice. Conditions: 3 mM aqueous solution, free water drinking day 0 to day 21; methacholine inhalation; asthma model mice 6.61. As for the experimental part: After elapse of 24 hours following a third antigen exposure, the animals were allowed to inhale methacholine, which is an airway constricting substance, and an airway hypersensitivity test of the ovalbumin-induced asthma mice was performed using a whole body plethysmography. As an index of airway resistance, the Penh value was used. In the ovalbumin-induced asthma model mice, the Penh value was 6.61; in the group receiving a 3 mM aqueous solution of valine administered by the free water drinking method from day 0 to day 21, the Penh value decreased to 3.77.

For assay [3] the test system is unchanged. Description: Cytokine concentrations in BAL Fluid (ELISA) of ovalbumin-induced asthma model mice. Type of assay: in vivo, Balb/c mice. The note with it: 0.6 mM aqueous solution, free water drinking day 0 to day 21. The protocol:
After a 0.6 mM aqueous solution of valine was prepared, it was administered by the free water drinking method from day 0 to day 21. The IFN-γ/IL4 ratio increased from 5.8 for the control group to 8.0 for the valine administration group.
On the technique in general: An ELISA detects its analyte on a solid surface through an enzyme-linked reagent.

The test system is the same in assay [4]. The assay can be described thus: Lung tissue pathology (H/E staining), immune cell infiltration in ovalbumin-induced asthma model mice. Type of assay: in vivo, Balb/c mice. The note with it: valine 3 mM or ornithine hydrochloride 15 mM, free water drinking day 0 to day 21. The protocol:
After elapse of 24 hours following a third antigen exposure, the lungs were extirpated from the mice and fixed in 10% formalin buffer solution, paraffin sections were prepared, and H/E staining was performed. […] Note that FIG. 7(a) is a lung tissue image of a normal mouse without asthma induction.

Assay [5] deals with Ovalbumin-immunized Balb/c mice. Description: Cytokine productivity of isolated immune cells (lung macrophages co-cultured with splenocytes) from ovalbumin-immunized mice given valine. Type of assay: in vivo. The note with it: valine 3 mM free water drinking day 0 to day 11, co-cultured with splenocytes 48 hours, ELISA. As for the experimental part: Ovalbumin-immunized Balb/c mice were given L-valine (free form), and changes in the cytokine productivity of isolated immune cells were examined, whereby the effect on the Th1/Th2 balance in a living organism's immune system was investigated. After a 3 mM aqueous solution of valine was prepared, it was administered by the free water drinking method from day 0 to day 11. […] On day 11, macrophages were isolated from the lungs and cultured in the presence of 1 mg/mL ovalbumin overnight, after which they were further co-cultured with splenocytes isolated from an ovalbumin-immunized mouse for 48 hours. After the cultivation, cytokines in the culture supernatant were measured by an ELISA method. […] With valine administration, an increase in the Th1 cytokine content and a reduction in the Th2 cytokine content were observed.

In assay [6] the test system is ovalbumin-induced pulmonary fibrosis model mice. The assay can be described thus: Ovalbumin-induced pulmonary fibrosis model mice: airway resistance (Penh) after methacholine. Type of assay: in vivo, Balb/c mice. The note with it: valine 15 g/L, dexamethasone 10 mg %, inhalation 40 minutes per day, day 21 to day 42, no treatment 4.0.
Experimental: Ovalbumin-induced pulmonary fibrosis model mice were induced by a conventional method using Balb/c mice, and the lung function reduction suppressive effect of coadministration of L-valine (free form) and dexamethasone by inhalation was investigated. 24 hours after antigen exposure on day 42, the pulmonary fibrosis model mice were allowed to inhale methacholine, which is a bronchial constriction inducer, and airway resistance (Penh) was measured using a Buxco whole body plethysmography. Valine (15 g/L) and dexamethasone (10 mg %) were aerosolized with a nebulizer and coadministered by inhalation (40 minutes per day) on consecutive days from day 21 to day 42.
The test system is the same in assay [7]. Description: Ovalbumin-induced pulmonary fibrosis model mice: hydroxyproline content in lung tissue. Type of assay: in vivo, Balb/c mice. The note with it: valine 15 g/L, dexamethasone 10 mg %, inhalation 40 minutes per day, day 21 to day 42; no treatment 28.7%.
Experimental: Ovalbumin-induced pulmonary fibrosis model mice were induced by a conventional method using Balb/c mice, and the pulmonary fibrosis suppressive effect of coadministration of L-valine (free form) and dexamethasone by inhalation was investigated. 24 hours after antigen exposure on day 42, the lungs were extirpated from the pulmonary fibrosis model mice, and the hydroxyproline content in lung tissue was measured as an index of the degree of fibrosis. Valine (15 g/L) and dexamethasone (10 mg %) were aerosolized with a nebulizer and coadministered by inhalation (40 minutes per day) on consecutive days from day 21 to day 42. The results are expressed as increments (%) of the hydroxyproline content in each test group compared to the hydroxyproline content in the lung tissues from normal mice.
Setting [8] is: 0.6 to 15 mM aqueous solutions, free water drinking day 0 to day 21, 1st of 3 values (respectively), control 33.
Where [9] appears, read: 0.6 to 15 mM aqueous solutions, free water drinking day 0 to day 21, 2nd of 3 values (respectively), control 33.
Where [10] appears, read: 0.6 to 15 mM aqueous solutions, free water drinking day 0 to day 21, 3rd of 3 values (respectively), control 33.

On to `N=C(N)NCCC[C@H](N)C(=O)O` [arginine, L-arginine], for which the “eosinophil count in the BAL Fluid” value in assay [1] (3 to 45 mM aqueous solutions, free water drinking day 0 to day 21, 1st of 3 values (respectively), control 45) was 26000 µL⁻¹; in assay [1] (3 to 45 mM aqueous solutions, free water drinking day 0 to day 21, 2nd of 3 values (respectively), control 45), 25000 µL⁻¹; in assay [1] (3 to 45 mM aqueous solutions, free water drinking day 0 to day 21, 3rd of 3 values (respectively), control 45), 19000 µL⁻¹.

Turning to `CC(C)[C@H](N)C(=O)O` [valine, L-valine], the “effect on eosinophil count in the BAL Fluid compared to the control group” value in assay [1] (15 mM, free water drinking started at first suction exposure (day 12)) is listed as “no significant effect”. In addition, the “eosinophil count in the BAL Fluid” value in assay [1] (0.12 to 15 mM aqueous solutions, free water drinking day 0 to day 21, 1st of 4 values (respectively), control 36) was 26000 µL⁻¹; in assay [1] (0.12 to 15 mM aqueous solutions, free water drinking day 0 to day 21, 2nd of 4 values (respectively), control 36), 23000 µL⁻¹; in assay [1] (0.12 to 15 mM aqueous solutions, free water drinking day 0 to day 21, 3rd of 4 values (respectively), control 36), 17000 µL⁻¹; in assay [1] (0.12 to 15 mM aqueous solutions, free water drinking day 0 to day 21, 4th of 4 values (respectively), control 36), 28000 µL⁻¹; in assay [1] (0.6, 3, or 15 g/L aqueous solution, oral by sonde 100 μL/time/animal twice a day, day 0 to day 21), “decreased with dependence on the dose”; in assay [1] (0.6 or 15 g/L aqueous solution, inhalation (nebulizer) once daily 30 minutes, 5 days/week, day 11 to day 21) it was “decreased with dependence on the dose”. Further, in assay [2], the “Penh value (index of airway resistance)” value is given as 3.77. The “IL-4 in BAL Fluid” value in assay [3] (ELISA, control 69.1) is given as 120.7 pg/mL. In addition, the “IFN-γ in BAL Fluid” value in assay [3] (ELISA, control 403.8) is 970.4 pg/mL. Also, the “IFN-γ/IL-4 ratio in BAL Fluid” value in assay [3] (control 5.8) turned out to be 8.0. The “lung tissue symptoms (immune cell infiltration, hypertrophy of bronchial epithelial cells, mucosa-producing cells, bronchial stenosis)” value in assay [4] was “all of the above-described symptoms were potently suppressed, and no bronchial stenosis was observed”. In assay [5], the “IL-4 (pg/mL) Mean, culture supernatant” value stood at 9.2 pg/mL. For the same molecule, in assay [5] (control 147.0), the “IFN-γ (pg/mL) Mean, culture supernatant” value amounted to 341.1 pg/mL. The “Penh value (airway resistance)” value in assay [6] was found to be 4.0. The “increment of hydroxyproline content in lung tissue compared to normal mice” value in assay [7] came out at 31%.

Take `CC(C)C[C@H](N)C(=O)O` [leucine, L-leucine]: in assay [1] (0.9 mM aqueous solution, free water drinking day 0 to day 21, control 20), the “eosinophil count in the BAL Fluid” value was determined as 7000 µL⁻¹.

Consider `N[C@@H](CO)C(=O)O` [serine], for which the “eosinophil count in the BAL Fluid” value turned out to be 29000 µL⁻¹ in assay [1] (setting [8]), 24000 µL⁻¹ in assay [1] (setting [9]) and 22000 µL⁻¹ in assay [1] (setting [10]).

In the case of `NCC(=O)O` [glycine], the “eosinophil count in the BAL Fluid” value in assay [1] (setting [8]) was determined as 32000 µL⁻¹; in assay [1] (setting [9]), 27000 µL⁻¹; in assay [1] (setting [10]) it was 28000 µL⁻¹.

Take `C[C@@H]1C[C@H]2[C@@H]3CCC4=CC(=O)C=C[C@]4(C)[C@@]3(F)[C@@H](O)C[C@]2(C)[C@@]1(O)C(=O)CO` [dexamethasone, reference compound]: the “Penh value (airway resistance)” value in assay [6] is listed as 4.1. The “increment of hydroxyproline content in lung tissue compared to normal mice” value in assay [7] amounted to 15.4%.

Consider `CC[C@H](C)[C@H](N)C(=O)O` [isoleucine, L-isoleucine], for which the “eosinophil count in the BAL Fluid” value in assay [1] (0.45 mM aqueous solution, free water drinking day 0 to day 21, control 20) was found to be 12000 µL⁻¹.
